Source: US5985926A, “Method for inhibiting intracellular viral replication” (Cell Therapeutics, Inc., priority 1997, dated 1999)
Entries after “also recorded” stand apart in the source; their conditions may differ.

Key:
[1] = tested on: 293-EBNA cells
[2] = tested on: HIV-LTR promoter (tat transactivation) in 293-EBNA cells; experiment: AP reporter gene expression from HIV-LTR promoter with tat expression vector, 293-EBNA cells; assay type: cell-based, HIV; human cells; conditions: 293-EBNA cells, HIV promoter, in words
How it was run: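 293-EBNA cells were transiently co-transfected with an HIV-LTR-driven secreted placental alkaline phosphatase reporter and a tat(1–72) expression plasmid. At 24 h, the medium was switched to serum-free AIM V before compounds were added at various concentrations. Secreted AP activity was read colorimetrically at 405 nm 19–24 h later.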

[3] = tested on: NFκB; experiment: NFκB activation in 293tat cells, electrophoretic mobility shift assay; assay type: cell-based, human; conditions: CT2576 12 μM, TNF-α 40 ng/ml or IL-1β 1 ng/ml
Method: (§1) Nuclear extracts (A) from 293tat cells were tested by EMSA for activation of NFκB. A radiolabeled 40-mer covering the NFκB sequences in the HIV promoter was used as a probe. Cells were incubated with CT2576 at 12 μM, human TNF-α at 40 ng/ml or IL-1β at 1 ng/ml, or pre-incubated for 30 min. with CT2576 and then stimulated with TNF-α or IL-1β for 18 hr prior to making extracts. RNA was extracted from 293tat cells (B) after treatment with CT2576 without or with TNF-α or IL-1β for 18 hr. Northern blots analysis were performed using probes derived from AP cDNA and G3PDH cDNA as a control for normalization of mRNA level. AP activity was determined in cell supernatants from the various samples.
(§2) NFκB binding activity in nuclear extracts (Dignam et al., Nucleic Acids Res. 11:1475-1489, 1983) of cells was measured by electrophoretic mobility-shift assay (EMSA) (Carthew et al., Cell 43:439-448, 1985) using 5'-labeled double-stranded synthetic DNA with two NF-κB motifs. Northern blot analysis was performed with total RNA run on 1% agarose/formaldehyde gel and probed with ^32 P-labeled cDNA of AP and glyceraldehyde-3-phosphate dehydrogenase (G3PDH).

[4] = tested on: AP mRNA in 293tat cells; experiment: AP mRNA level in 293tat cells, Northern blot; assay type: cell-based, human; conditions: with TNF-α or IL-1β
Method: as §1, §2

SMILES | effect on cell viability / cytotoxicity [1] | inhibition of AP expression (HIV-LTR promoter) [2] | activation of NFκB [3] | AP transcript / mRNA steady-state level [4]
CCCCCCCCNCC(O)CCCCCCCCCN1C(=O)CCN(C)C1=O (stereo not shown) [CT1829, 3-(11-octylamino-10-hydroxyundecyl)-1-methyldihydrouracil] | minimal cytotoxic effects | inhibit HIV promoter driven expression |  | 
CCCCCCCCNCC(O)CCCCCCCCCn1c(=O)c2c(ncn2C)n(C)c1=O (stereo not shown) [CT2576, 1-(11-octylamino-10-hydroxyundecyl)-3,7-dimethylxanthine] |  |  | did not inhibit TNF-α dependent activation of NFκB | increase in mRNA level; also recorded: did not block expression at the transcription stage
